In patent US20250129070A1, “BIFUNCTIONAL ANDROGEN RECEPTOR COMPOUNDS” (priority 2023, published 2025):

Assays:
[1] = tested on: VCaP cells; assay: VCaP growth inhibition assay; format: cell-based; conditions: 30 pM R1881, 9 days, CTG
How it was run: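 Growth read by CTG luminescence after 9-day exposure to compound (final 100 nM–10 fM, 1:5 steps) plus 30 pM R1881, in phenol red-free DMEM with 5% CSS. Cells pre-incubated 72 h before dosing; IC50 by nonlinear 4-parameter regression.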

[2] = tested on: AR / CBP ternary complex; assay: Ternary complex formation assay (sandwich ELISA, AR capture / CBP detection) in VCaP cell lysates; format: cell-based; conditions: 1.5 hours treatment, sandwich ELISA (AR capture, CBP or p300 detection)
How it was run: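 Anti-AR (AR 441)-coated plates capture AR from lysates of VCaP cells grown ≥3 days at 50K/well in 5% charcoal-stripped FBS, dosed with bifunctional for 1.5 h and lysed 30 min at 4 °C. Co-captured CBP/p300 is probed with rabbit mAb and HRP anti-rabbit, then QuantaRed fluorescence (570/585) is read at 0, 5 and 15 min.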

SMILES	IC50 [1] [nM]	EC50 [2] [nM]
CC(=O)N1CCc2c(c(N3CCCc4cc(-c5cnn(C)c5)c(C)cc43)nn2C2CCN(CC3CCN(c4ncc(C(=O)NC5C(C)(C)C(Oc6ccc(C#N)c(C)c6C)C5(C)C)cn4)CC3(C)C)CC2)C1 (stereo not drawn) [Compound 465, 2-[4-[[4-[5-acetyl-3-[7-methyl-6-(1-methylpyrazol-4-yl)-3,4-dihydro-2H-quinolin-1-yl]-6,7-dihydro-4H-pyrazolo[4,3-c]pyridin-1-yl]-1-piperidyl]methyl]-3,3-dimethyl-1-piperidyl]-N-[3-(4-cyano-2,3-dimethyl-phenoxy)-2,2,4,4-tetramethyl-cyclobutyl]pyrimidine-5-carboxamide]	0.1 to 1	< 1
CC(=O)N1CCc2c(c(N3CCCc4cc(-c5cnn(C)c5)c(C(F)F)cc43)nn2C2CCC(OC3CCN(c4ncc(C(=O)NC5C(C)(C)C(Oc6ccc(C#N)c(Cl)c6)C5(C)C)cn4)CC3)CC2)C1 (stereo not drawn) [Compound 338, 2-[4-[4-[5-acetyl-3-[7-(difluoromethyl)-6-(1-methylpyrazol-4-yl)-3,4-dihydro-2H-quinolin-1-yl]-6,7-dihydro-4H-pyrazolo[4,3-c]pyridin-1-yl]cyclohexoxy]-1-piperidyl]-N-[3-(3-chloro-4-cyano-phenoxy)-2,2,4,4-tetramethyl-cyclobutyl]pyrimidine-5-carboxamide]	0.1 to 1	< 1
COc1cc(OC2C(C)(C)C(NC(=O)c3ccc(N4CC5(CC(N6CCC(n7nc(N8CCCc9cc(-c%10cnn(C)c%10)c(C(F)F)cc98)c8c7CCN(C(C)=O)C8)CC6)C5)C4)cc3)C2(C)C)ccc1C#N (stereo not drawn) [Compound 349, 4-[6-[4-[5-acetyl-3-[7-(difluoromethyl)-6-(1-methylpyrazol-4-yl)-3,4-dihydro-2H-quinolin-1-yl]-6,7-dihydro-4H-pyrazolo[4,3-c]pyridin-1-yl]-1-piperidyl]-2-azaspiro[3.3]heptan-2-yl]-N-[3-(4-cyano-3-methoxy-phenoxy)-2,2,4,4-tetramethyl-cyclobutyl]benzamide]	≤ 0.1	< 1
CC(=O)N1CCc2c(c(N3CCCc4cc(-c5cnn(C)c5)c(C(F)F)cc43)nn2C2CCC3(CC2)CN(C2CCN(c4ncc(C(=O)NC5C(C)(C)C(Oc6ccc(C#N)c(Cl)c6)C5(C)C)cn4)CC2)C3)C1 (stereo not drawn) [Compound 371, 2-[4-[7-[5-acetyl-3-[7-(difluoromethyl)-6-(1-methylpyrazol-4-yl)-3,4-dihydro-2H-quinolin-1-yl]-6,7-dihydro-4H-pyrazolo[4,3-c]pyridin-1-yl]-2-azaspiro[3.5]nonan-2-yl]-1-piperidyl]-N-[3-(3-chloro-4-cyano-phenoxy)-2,2,4,4-tetramethyl-cyclobutyl]pyrimidine-5-carboxamide]	≤ 0.1	< 1
CC(=O)N1CCc2c(c(N3CCCc4cc(-c5cnn(C)c5)c(C(F)F)cc43)nn2CCCN(C)c2ncc(C(=O)NC3C(C)(C)C(Oc4ccc(C#N)c(Cl)c4)C3(C)C)cn2)C1 (stereo not drawn) [Compound 44, 2-[3-[5-acetyl-3-[7-(difluoromethyl)-6-(1-methylpyrazol-4-yl)-3,4-dihydro-2H-quinolin-1-yl]-6,7-dihydro-4H-pyrazolo[4,3-c]pyridin-1-yl]propyl-methyl-amino]-N-[3-(3-chloro-4-cyano-phenoxy)-2,2,4,4-tetramethyl-cyclobutyl]pyrimidine-5-carboxamide]	> 100	> 100
CC(=O)N1CCc2c(c(N3CCCc4cc(-c5cnn(C)c5)c(C(F)F)cc43)nn2C2CCN(Cc3ncc(C(=O)NC4C(C)(C)C(Oc5ccc(C#N)c(Cl)c5)C4(C)C)cn3)CC2)C1 (stereo not drawn) [Compound 94, 2-[[4-[5-acetyl-3-[7-(difluoromethyl)-6-(1-methylpyrazol-4-yl)-3,4-dihydro-2H-quinolin-1-yl]-6,7-dihydro-4H-pyrazolo[4,3-c]pyridin-1-yl]-1-piperidyl]methyl]-N-[3-(3-chloro-4-cyano-phenoxy)-2,2,4,4-tetramethyl-cyclobutyl]pyrimidine-5-carboxamide]	1 to 100	10 to 100
CC(=O)N1CCc2c(c(N3CCCc4ccc(C(F)F)cc43)nn2C2CC3(C2)CN(C(=O)C2CC4(C2)CN(c2ncc(C(=O)NC5C(C)(C)C(Oc6ccc(C#N)c(Cl)c6)C5(C)C)cn2)C4)C3)C1 (stereo not drawn) [Compound 218, 2-[6-[6-[5-acetyl-3-[7-(difluoromethyl)-3,4-dihydro-2H-quinolin-1-yl]-6,7-dihydro-4H-pyrazolo[4,3-c]pyridin-1-yl]-2-azaspiro[3.3]heptane-2-carbonyl]-2-azaspiro[3.3]heptan-2-yl]-N-[3-(3-chloro-4-cyano-phenoxy)-2,2,4,4-tetramethyl-cyclobutyl]pyrimidine-5-carboxamide]	1 to 100	> 100
CC(=O)N1CCc2c(c(N3CCCc4cc(-c5cnn(C)c5)c(C(F)F)cc43)nn2C2CCN(CC3CCN(c4ncc(C(=O)NC5C(C)(C)C(Oc6ccc(C#N)c(Cl)c6)C5(C)C)cn4)CC34CC4)CC2)C1 (stereo not drawn) [Compound 357, 2-[8-[[4-[5-acetyl-3-[7-(difluoromethyl)-6-(1-methylpyrazol-4-yl)-3,4-dihydro-2H-quinolin-1-yl]-6,7-dihydro-4H-pyrazolo[4,3-c]pyridin-1-yl]-1-piperidyl]methyl]-5-azaspiro[2.5]octan-5-yl]-N-[3-(3-chloro-4-cyano-phenoxy)-2,2,4,4-tetramethyl-cyclobutyl]pyrimidine-5-carboxamide]	≤ 0.1	< 1
COc1cc(OC2C(C)(C)C(NC(=O)c3ccc(N4CCC(N5CCC(n6nc(N7CCCc8cc(-c9cnn(C)c9)c(C(F)F)cc87)c7c6CCN(C(C)=O)C7)CC5)C(C)C4)cc3)C2(C)C)ccc1C#N (stereo not drawn) [Compound 304, 4-[4-[4-[5-acetyl-3-[7-(difluoromethyl)-6-(1-methylpyrazol-4-yl)-3,4-dihydro-2H-quinolin-1-yl]-6,7-dihydro-4H-pyrazolo[4,3-c]pyridin-1-yl]-1-piperidyl]-3-methyl-1-piperidyl]-N-[3-(4-cyano-3-methoxy-phenoxy)-2,2,4,4-tetramethyl-cyclobutyl]benzamide]	0.1 to 1	< 1
CC(=O)N1CCc2c(c(N3CCCc4cc(-c5cnn(C)c5)c(C(F)F)cc43)nn2CCCOc2ncc(C(=O)NC3C(C)(C)C(Oc4ccc(C#N)c(Cl)c4)C3(C)C)cn2)C1 (stereo not drawn) [Compound 43, 2-[3-[5-acetyl-3-[7-(difluoromethyl)-6-(1-methylpyrazol-4-yl)-3,4-dihydro-2H-quinolin-1-yl]-6,7-dihydro-4H-pyrazolo[4,3-c]pyridin-1-yl]propoxy]-N-[3-(3-chloro-4-cyano-phenoxy)-2,2,4,4-tetramethyl-cyclobutyl]pyrimidine-5-carboxamide]	> 100	> 100
COc1cc(OC2C(C)(C)C(NC(=O)c3ccc(N4CC5(CCC(N6CCC(n7nc(N8CCCc9cc(-c%10cnn(C)c%10)c(C)cc98)c8c7CCN(C(C)=O)C8)CC6)CC5)C4)cc3)C2(C)C)ccc1C#N (stereo not drawn) [Compound 449, 4-[7-[4-[5-acetyl-3-[7-methyl-6-(1-methylpyrazol-4-yl)-3,4-dihydro-2H-quinolin-1-yl]-6,7-dihydro-4H-pyrazolo[4,3-c]pyridin-1-yl]-1-piperidyl]-2-azaspiro[3.5]nonan-2-yl]-N-[3-(4-cyano-3-methoxy-phenoxy)-2,2,4,4-tetramethyl-cyclobutyl]benzamide]	0.1 to 1	< 1
C[C@@H]1CC(=O)Nc2cccc(-c3ccc4c(c3)c(-c3cnn(C)c3)nn4CCCN(C)c3ncc(C(=O)NC4C(C)(C)C(Oc5ccc(C#N)c(Cl)c5)C4(C)C)cn3)c2N1 (stereo partly drawn) [Compound 50, N-[3-(3-chloro-4-cyano-phenoxy)-2,2,4,4-tetramethyl-cyclobutyl]-2-[methyl-[3-[5-[(4R)-4-methyl-2-oxo-1,3,4,5-tetrahydro-1,5-benzodiazepin-6-yl]-3-(1-methylpyrazol-4-yl)indazol-1-yl]propyl]amino]pyrimidine-5-carboxamide]	0.1 to 1	< 1
CC(=O)N1CCc2c(c(N3CCCc4cc(-c5cnn(C)c5)c(C(F)F)cc43)nn2C2CCN(CCOC3CCN(c4ncc(C(=O)NC5C(C)(C)C(Oc6ccc(C#N)c(Cl)c6)C5(C)C)cn4)CC3)CC2)C1 (stereo not drawn) [Compound 170, 2-[4-[2-[4-[5-acetyl-3-[7-(difluoromethyl)-6-(1-methylpyrazol-4-yl)-3,4-dihydro-2H-quinolin-1-yl]-6,7-dihydro-4H-pyrazolo[4,3-c]pyridin-1-yl]-1-piperidyl]ethoxy]-1-piperidyl]-N-[3-(3-chloro-4-cyano-phenoxy)-2,2,4,4-tetramethyl-cyclobutyl]pyrimidine-5-carboxamide]	0.1 to 1	< 1
COc1cc(OC2C(C)(C)C(NC(=O)c3ccc(N4CC(C)C(CN5CCC(n6nc(N7CCCc8cc(C#N)c(C(F)F)cc87)c7c6CCN(C(C)=O)C7)CC5)C(C)C4)cc3)C2(C)C)ccc1C#N (stereo not drawn) [Compound 459, 4-[4-[[4-[5-acetyl-3-[6-cyano-7-(difluoromethyl)-3,4-dihydro-2H-quinolin-1-yl]-6,7-dihydro-4H-pyrazolo[4,3-c]pyridin-1-yl]-1-piperidyl]methyl]-3,5-dimethyl-1-piperidyl]-N-[3-(4-cyano-3-methoxy-phenoxy)-2,2,4,4-tetramethyl-cyclobutyl]benzamide]	0.1 to 1	< 1
CC(=O)N1CCc2c(c(N3CCCc4ccccc43)nn2C2CCN(C(=O)C3CCN(c4ncc(C(=O)NC5C(C)(C)C(Oc6ccc(C#N)c(Cl)c6)C5(C)C)cn4)CC3)CC2)C1 (stereo not drawn) [Compound 129, 2-[4-[4-[5-acetyl-3-(3,4-dihydro-2H-quinolin-1-yl)-6,7-dihydro-4H-pyrazolo[4,3-c]pyridin-1-yl]piperidine-1-carbonyl]-1-piperidyl]-N-[3-(3-chloro-4-cyano-phenoxy)-2,2,4,4-tetramethyl-cyclobutyl]pyrimidine-5-carboxamide]	≤ 0.1	< 1
